Reference: patent US9265735B2, “Methods for screening to identify therapeutic agents for Alzheimer's disease and use thereof” (New York University, priority 2010, dated 2016)
“Also recorded” adds a separate entry of the source.

Columns and labels:
LC3-II = LC3-II levels by immunoblot / LC3 puncta in WT and PS1 KO cells; assay type: cell-based, Murine; settings: 6 hrs
Description: (§1) Immunoblotting was performed as previously described (Yu et al., 2005). Briefly, cells used for Western blot analysis were lysed in buffer containing 50 mM Tris (pH=7.4), 150 mM NaCl, 1 mM EDTA, 1 mM EGTA, 1% Triton X-100 and 0.5% Tween-20 with protease and phosphatase inhibitors. Following electrophoresis on 4-20% gradient gel (Invitrogen), proteins were transferred onto 0.45 μm PVDF membranes (Millipore) and the membrane was incubated overnight in primary antibody then incubated with HRP conjugated secondary antibody. The blot was developed by ECL-kit (GE Healthcare). To assess v-ATPase V0a subunit glycosylation, lysate from WT and PS1KO cells were either treated for 24 hrs at 37° C. with PNGase F or O-glycanase using an enzymatic deglycosylation kit according to the manufacturer's instructions (PROzyme) or with Endo H (New England Biolabs) for 24 hrs at 37° C. Total glycoproteins were isolated using Glycoprotein Isolation Kit, ConA according to the manufacturer's instructions (Thermo Scientific).
Immunocytochemistry was performed as previously described (Yu et al., 2005). Secondary antibodies used were from Invitrogen: goat anti-mouse/rabbit/rat Alexa Fluor 488 and goat anti-mouse/rabbit/rat Alexa Fluor 568. […] Images were analysed using ImageJ program (NIH). […]

PS1KO blastocysts = assay: Lysosomal pH measurement with Dextran conjugated Lysosensor Yellow/Blue in PS1KO cells; assay type: cell-based, Murine; settings: for lysosomal pH after treatment relative to WT lysosomal pH (ANOVA, Dunnet's post-test): PS1KO blastocysts, FIG. 11; for effect on elevated lysosomal pH in PS1KO cells: FIG. 10A/G; for effect on elevated lysosomal pH in PS1KO cells / effect of pretreatment on the action of isoproterenol on lysosomal pH: PS1KO cells; for effect of pretreatment on the action of isoproterenol on lysosomal pH: pretreatment before isoproterenol, FIG. 10F
Description: For results presented in Example 1, quantification of lysosomal pH was determined using Dextran conjugated Lysosensor Yellow/Blue DND-160 (Invitrogen) as follows. Wild Type and PS1KO blastocysts were grown in High Glucose DMEM+15% FBS with antibiotics to ˜90% confluency. Cells were then trypsinized, harvested (1×10^6 cells/ml) and loaded with 1 mg/ml of Lysosensor-dextran for 1 hour at 37° C. with 5% CO2. The cells were then washed 3× in HBSS and aliquoted at […] into a black 96-well microplate. pH calibration was performed according to the protocol established by Diwu et al (Diwu et al., (1999). Chem Biol 6, 411-418). Briefly, wild type and PS1KO blastocysts were treated with 10 μM monensin and 10 uM nigericin in MES buffer (5 mM NaCl, 115 mM KCL, 1.3 mM MgSO4, 25 mM MES), with the pH adjusted to a range from 3.5-7.0. The samples were read in a Wallac Victor 2 fluorimeter (Perkin Elmer) with excitation at 355 nm. The ratio of emission 440/535 nm was then calculated for each sample. The pH values were determined from the linear standard curve generated via the pH calibration samples.
In a more particular embodiment, quantification of lysosomal pH is determined using Dextran conjugated Lysosensor Yellow/Blue (Invitrogen) as follows. 3000 Wild Type and PS1KO blastocysts were seeded in multiple wells of black, clear bottom tissue culture treated 96 well dish and grown in High Glucose DMEM+15% FBS with antibiotics to ˜90% confluency (˜24 hours). 2 ul of 0.5 mg/ml lysosensor-dextran (1:100 dilution of a 5 mg/ml stock) was added and incubated for 1 hour at 37° C. with 5% CO2. The cells were then washed 3× in HBSS. See also methods and results set forth herein below in Example 2. This modified protocol represents an optimized protocol for the purposes set forth herein.
(§2) Quantification of lysosomal pH was determined using Dextran conjugated Lysosensor Yellow/Blue (Invitrogen). 3000 Wild Type and PS1KO blastocysts were seeded in multiple wells of black, clear bottom tissue culture treated 96 well dish and grown in High Glucose DMEM+15% FBS with antibiotics to ˜90% confluency (˜24 hours). 2 ul of 0.5 mg/ml lysosensor-dextran (1:100 dilution of a 5 mg/ml stock) was added and incubated for 1 hour at 37° C. with 5% CO2. The cells were then washed 3× in HBSS.
Performed according to the protocol established by Diwu et al (supra). Briefly, wild type and PS1KO blastocysts were treated with 10 uM monensin and 10 uM nigericin in MES buffer (5 mM NaCl, 115 mM KCL, 1.3 mM MgSO4, 25 mM MES), with the pH adjusted to a range from 3.5-7.0 for 7-10 min prior to lysosensor addition (the additional hour in the buffer seems to have no effect), these cells are not washed in HBSS since permeabilization with ionophores makes them susceptible to detachment.
(§3) The samples were read in a Wallac Victor 2 fluorimeter (Perkin Elmer) with excitation at 355 nm. The ratio of emission 440 nm/535 nm was then calculated for each sample. pH values were determined from the linear std curve generated via the pH calibration samples.

Cat B [1] = assay: Cat B activity by MagicRed-Cathepsin B (MR-Cat B) in PS1KO cells; assay type: cell-based, Murine; settings: PS1 KO cells
Description: (§4) Immunocytochemistry was performed as previously described (Yu et al., 2005). Secondary antibodies used were from Invitrogen: goat anti-mouse/rabbit/rat Alexa Fluor 488 and goat anti-mouse/rabbit/rat Alexa Fluor 568. Cells were imaged using a plan-Apochromat 40× or 100×/1.4 oil DIC objective lens on the laser scanning confocal microscope, LSM 510 META, with LSM software v3.5 (Carl Zeiss MicroImaging Inc). Images were analysed using ImageJ program (NIH). Organelles with low internal pH were labeled by LysoTracker DND-99 dye (Invitrogen) at the final 100 nM for 30 min. Following 4% PFA fixation, cells were further counter stained with Cat D, LMAP1, or LC3 antibody for 4 hrs then visualized with Alexa Fluor 488 conjugated secondary antibody. Active Cat D was labeled by adding Bodipy-FL-pepstatin A directly to the medium at a final concentration of 1 μg/ml for 1 hr. Following 4% PFA fixation, cells were counter stained with Cat D antibody for 4 hrs and visualized with Alexa Fluor 568 conjugated secondary antibody. […] Cells were incubated for 30 min with MR-Cathepsin B prior to mounting them under the confocal microscope. […]
(§5) Active Cat D was labeled by adding Bodipy-FL-pepstatin A directly to the medium at a final concentration of 1 mg/ml for 1 hr. […] Cat B staining with MagicRed-Cathepsin B was also measured fluorometrically with a Wallac Victor 2 fluorometer.

v-ATPase V0a1 subunit = assay: v-ATPase V0a1 glycosylation state in WT cells (immunoblot); assay type: cell-based, Murine; settings: 100-kDa with vs 120-kDa without tunicamycin
Description: as §1

WT blastocysts = assay: Validation of lysosomal pH measurement in WT blastocysts; assay type: cell-based, Murine; settings: FIG. 9A
Description: as §2
Performed according to the protocol established by Diwu et al (supra). […]
as §3
At the outset, the validity of the method described herein to measure lysosomal pH is confirmed. See, for example, FIG. 9A-D. More particularly, to assess the validity of the method of quantifying lysosomal pH, WT blastocysts were treated with chloroquine (CQ), which is known to elevate lysosomal pH. […]

WT and PS1 KO cells = assay: Intracellular protein degradation (pulse-chase, [3H]-leucine) in WT and PS1 KO blastocysts; assay type: cell-based, Murine; settings: serum withdrawal, NH4Cl 20 mM, 3MA 10 mM
Description: (§6) Total protein degradation in cultured cells was measured by pulse-chase experiments (Auteri et al., 1983, J Cell Physiol 115, 167-174). Confluent cells were labeled with [^3H]-leucine (2 μCi/ml) for 48 hrs at 37° C. in order to preferentially label long-lived proteins. Following labeling, cells were extensively washed and maintained in complete medium (DMEM+10% fetal bovine serum), under which conditions autophagy is suppressed, or in serum-deprived medium, where autophagy is induced. Under both conditions, after washing the cells, the medium was supplemented with unlabeled 2.8 mM leucine to prevent [^3H]-leucine reincorporation into newly synthesized proteins. Aliquots of the medium taken at different time-points were precipitated with 10% TCA, filtered using a 0.22 μm pore membrane and radioactivity in the flow-through was measured. Proteolysis is expressed as the percentage of the initial acid-precipitable radioactivity (protein) transformed to acid-soluble radioactivity (amino acids and small peptides) over time. To inhibit autophagy in this system, 20 mM NH4Cl or 10 mM 3MA was added immediately after the labeling period and maintained at that concentration throughout the chase. […] Protein synthesis was determined as the incorporation of [^3H]leucine into acid-insoluble material in the presence of an excess (2.8 mM) unlabeled leucine in the medium. […]

[2] = in vivo; cited from earlier work
Cat B [3] = assay: MR-Cat B signal in WT cells; assay type: cell-based, Murine; settings: NH4Cl treated WT cells
Description: as §4, §5

[4] = test system: PS1-FAD human fibroblasts; assay: Intracellular protein degradation (pulse-chase) in control and PS1-FAD fibroblasts; assay type: cell-based; settings: serum withdrawal; NH4Cl treatment
Description: as §6

Cat D = target: T1, Cat D (Mus musculus, UniProt P18242); assay: Active Cat D labeling with Bodipy-FL-pepstatin A in WT cells; assay type: cell-based, Murine; settings: NH4Cl
T1 construct: endogenous in cells; host or cells: WT murine blastocyst cells (BD6)
Description: Immunocytochemistry was performed as previously described (Yu et al., 2005). Secondary antibodies used were from Invitrogen: goat anti-mouse/rabbit/rat Alexa Fluor 488 and goat anti-mouse/rabbit/rat Alexa Fluor 568. Cells were imaged using a plan-Apochromat 40× or 100×/1.4 oil DIC objective lens on the laser scanning confocal microscope, LSM 510 META, with LSM software v3.5 (Carl Zeiss MicroImaging Inc). Images were analysed using ImageJ program (NIH). Organelles with low internal pH were labeled by LysoTracker DND-99 dye (Invitrogen) at the final 100 nM for 30 min. Following 4% PFA fixation, cells were further counter stained with Cat D, LMAP1, or LC3 antibody for 4 hrs then visualized with Alexa Fluor 488 conjugated secondary antibody. Active Cat D was labeled by adding Bodipy-FL-pepstatin A directly to the medium at a final concentration of 1 μg/ml for 1 hr. Following 4% PFA fixation, cells were counter stained with Cat D antibody for 4 hrs and visualized with Alexa Fluor 568 conjugated secondary antibody. […] Cells were incubated for 30 min with MR-Cathepsin B prior to mounting them under the confocal microscope. To block v-ATPase proton pump activity, ammonium chloride (NH4Cl) was added directly to the medium at a final concentration of 20 mM for 6 hrs prior to LysoTracker addition.

T1 sequence (P18242 65-410): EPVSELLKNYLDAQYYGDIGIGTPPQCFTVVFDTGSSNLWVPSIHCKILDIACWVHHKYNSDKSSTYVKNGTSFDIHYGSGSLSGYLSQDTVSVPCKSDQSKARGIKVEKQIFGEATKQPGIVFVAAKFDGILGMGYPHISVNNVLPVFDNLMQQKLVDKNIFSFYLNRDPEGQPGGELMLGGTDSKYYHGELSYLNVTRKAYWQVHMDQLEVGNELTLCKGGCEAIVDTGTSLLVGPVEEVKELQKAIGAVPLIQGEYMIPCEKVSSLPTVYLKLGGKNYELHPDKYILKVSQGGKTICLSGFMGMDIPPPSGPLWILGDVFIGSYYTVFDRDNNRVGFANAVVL
Chain of v-ATPase V0a1 subunit (Q9Z1G4 whole entry): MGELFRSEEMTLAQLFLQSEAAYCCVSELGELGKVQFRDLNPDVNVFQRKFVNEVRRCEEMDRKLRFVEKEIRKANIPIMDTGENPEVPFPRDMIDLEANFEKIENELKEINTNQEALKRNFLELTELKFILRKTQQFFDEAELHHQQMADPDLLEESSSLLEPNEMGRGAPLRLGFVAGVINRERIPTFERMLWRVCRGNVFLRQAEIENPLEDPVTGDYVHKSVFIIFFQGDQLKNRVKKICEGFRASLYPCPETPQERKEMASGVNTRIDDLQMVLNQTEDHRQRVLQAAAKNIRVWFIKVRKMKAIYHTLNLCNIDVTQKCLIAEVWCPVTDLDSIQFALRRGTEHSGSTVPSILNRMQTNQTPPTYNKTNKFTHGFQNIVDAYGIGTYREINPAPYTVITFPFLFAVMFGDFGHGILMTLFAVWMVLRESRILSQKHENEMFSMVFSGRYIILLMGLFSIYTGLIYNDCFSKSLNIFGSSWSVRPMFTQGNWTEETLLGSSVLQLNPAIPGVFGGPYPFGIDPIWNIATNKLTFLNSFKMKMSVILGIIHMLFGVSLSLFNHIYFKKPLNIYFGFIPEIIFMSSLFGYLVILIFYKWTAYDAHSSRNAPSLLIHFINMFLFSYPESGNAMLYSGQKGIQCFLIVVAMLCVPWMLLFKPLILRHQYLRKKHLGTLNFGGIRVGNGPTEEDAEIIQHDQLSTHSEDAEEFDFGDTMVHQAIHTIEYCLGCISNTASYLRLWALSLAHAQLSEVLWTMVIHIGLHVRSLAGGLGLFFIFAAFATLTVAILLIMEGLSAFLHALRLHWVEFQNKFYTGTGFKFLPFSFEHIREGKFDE

## CC(=O)N[C@@H](CC(C)C)C(=O)N[C@@H](CC(C)C)C(=O)N[C@H](C=O)CCCNC(=N)N [leupeptin]
LC3-II; PS1 KO cells, 0.3 mM
  LC3 levels in PS1 KO cells: did not increase LC3 levels
LC3-II; WT cells, rapamycin acute induction, leupeptin 0.3 mM
  LC3-II levels in WT cells: significantly elevated LC3-II levels and LC3-positive puncta

## COc1ccc(C2CNC(=O)C2)cc1OC1CCCC1 (stereo not shown) [rolipram]
PS1KO blastocysts
  lysosomal pH after treatment relative to WT lysosomal pH (ANOVA, Dunnet's post-test): did not differ significantly from that of WT lysosomal pH
  effect on elevated lysosomal pH in PS1KO cells: decreased lysosomal pH
PS1KO blastocysts; listed as Rolipram
  lysosomal pH after treatment relative to WT lysosomal pH (ANOVA, Dunnet's post-test): did not possess significant difference from WT lysosomal pH

## O=S(=O)(NCCNC/C=C/c1ccc(Br)cc1)c1cccc2cnccc12 [H89]
PS1KO blastocysts
  effect of pretreatment on the action of isoproterenol on lysosomal pH: prevent the action of isoproterenol

## Oc1ccc(C=Cc2cc(O)cc(O)c2)cc1 [resveratrol]
Cat B [1]
  active Cat B in PS1 KO cells: partially restoring active Cat B

## tunicamycin
v-ATPase V0a1 subunit
  gel mobility of v-ATPase V0a1 subunit: increase in mobility

## CCN(CC)CCCC(C)Nc1ccnc2cc(Cl)ccc12 (stereo not shown) [chloroquine]
WT blastocysts
  lysosomal pH of WT blastocysts: significantly elevated WT lysosomal pH

## CC(C)NCC(O)COc1cccc2ccccc12 (stereo not shown) [propranol]
PS1KO blastocysts
  effect of pretreatment on the action of isoproterenol on lysosomal pH: prevent the action of isoproterenol

## C=CCc1ccccc1OCC(O)CNC(C)C (stereo not shown) [alprenolol]
PS1KO blastocysts
  effect on elevated lysosomal pH in PS1KO cells: did not affect lysosomal pH; also recorded: remains unchanged

## Cn1cnc(N)c2ncnc1-2 [3-methyladenine]
WT and PS1 KO cells
  increase in proteolysis after serum removal: only the increased proteolysis in WT cells was blocked

## CC(C)(C)NCC(O)c1cc(Cl)c(N)c(Cl)c1 (stereo not shown) [clenbuterol]
PS1KO blastocysts; PS1-deleted cells, clinically relevant concentrations
  consequences on lysosomal pH and autophagy in PS1-deleted cells: desired consequences on lysosomal pH and autophagy
PS1KO blastocysts
  lysosomal pH after treatment relative to WT lysosomal pH (ANOVA, Dunnet's post-test): did not possess significant difference from WT lysosomal pH; also recorded: did not differ significantly from that of WT lysosomal pH
  effect on elevated lysosomal pH in PS1KO cells: normal levels or even hyperacidic levels; also recorded: restored to WT levels
[2]
  crossing of the blood brain barrier (BBB): cross the blood brain barrier

## Cl.N [NH4Cl, ammonium chloride]
Cat B [3]
  MR-Cat B signal: minimal
WT and PS1 KO cells
  increase in proteolysis after serum removal: entirely blocked the increase of proteolysis in both cell types
[4]
  difference in proteolytic rates between control and PS1-FAD fibroblasts: eliminated the difference in proteolytic rates between the two cell groups
Cat D
  Bodipy-FL-pepstatin A labeling of Cat D-positive compartments (active Cat D): nearly completely abolished; also recorded: minimal colocalization

## CNC[C@H](O)c1cccc(O)c1 [phenylepherine]
PS1KO blastocysts
  effect on elevated lysosomal pH in PS1KO cells: did not affect lysosomal pH; also recorded: remains unchanged

## COc1cc(/C=C/C(=O)CC(=O)/C=C/c2ccc(O)c(OC)c2)ccc1O [curcumin]
PS1KO blastocysts
  lysosomal pH after treatment relative to WT lysosomal pH (ANOVA, Dunnet's post-test): reduces lysosomal pH in excess of WT acidity
